Here are results for 18 compounds from patent publication US20230117034A1, “PYRAZOLOTRIAZINES” (Bayer Aktiengesellschaft, priority 2019, published 2023).

One test addresses CDK12/CycK (Homo sapiens, UniProt Q9NYV4). As to the kind of experiment: CDK12/CycK high ATP kinase assay (TR-FRET, 2 mM ATP). Format: biochemical. The following applies: 2 mM ATP (high ATP); median; read-out: CDK12/CyclinK, 2 mM ATP (high ATP), IC50-[mol/l] (median). The method, then: In the context of the present invention, the term “IC50 CDK12 hATP” refers to the IC50 values obtained according to the assay described in this section (2.2) herein below, i.e. the IC50 values for the inhibition of CDK12 at high (2 mM) ATP.
CDK12/CycK-inhibitory activity of compounds of the present invention at 2 millimol/L adenosine-tri-phosphate (ATP) was quantified employing the TR-FRET (TR-FRET=Time Resolved Fluorescence Energy Transfer) based CDK12/CycK activity inhibition assay as described in the following paragraphs.
A complex of human recombinant CDK12 and human recombinant CycK (both N-terminally His-tagged, expression and purification as described above) was used as enzyme. As substrate for the kinase reaction biotinylated peptide biotin-Ahx-KFELLPTPPLSPSRRSGL (C-terminus in amid form) was used which can be purchased e.g. form the company Biosyntan (Berlin-Buch, Germany).
For the assay 50 nanoL of a 100 fold concentrated solution of the test compound in DMSO was pipetted into either a black low volume 384 well microtiter plate or a black 1536 well microtiter plate (both Greiner Bio-One, Frickenhausen, Germany), 2 microL of a solution of CDK12/CycK in aqueous assay buffer [25 millimol/L HEPES pH 7.5, 20 millimol/L MgCl2, 5 millimol/L β-glycerophosphate, 2 millimol/L EGTA, 1.0 millimol/L dithiothreitol, 0.01% (v/v) Nonidet-P40 (Sigma), 0.01% (w/v) bovine serum albumin] were added and the mixture was incubated for 15 min at 22° C. to allow pre-binding of the test compounds to the enzyme before the start of the kinase reaction. Then the kinase reaction was started by the addition of 3 microL of a solution ATP (3.33 millimol/L=>final conc. in the 5 microL assay volume is 2 millimol/L) and substrate (1.67 micromol/L=>final conc. in the 5 microL assay volume is 1 micromol/L) in assay buffer and the resulting mixture was incubated for a reaction time of 60 min at 22° C. The concentration of CDK12/CycK was adjusted depending of the activity of the enzyme lot and was chosen appropriate to have the assay in the linear range, typical concentrations were about 0.75 nanomol/L. The reaction was stopped by the addition of 3 microL of a solution of TR-FRET detection reagents (125 nanomol/L streptavidine-XL665 [Cisbio Bioassays, Codolet, France] and 0.67 nanomol/L anti-Phospho-c-Myc (Ser 62) (E1J4K)-antibody from Cell Signalling [#13748] and 2 nanomol/L LANCE EU-W1024 labeled anti-rabbit IgG antibody [Perkin-Elmer, product no. 0083]) in an aqueous EDTA-solution (133 millimol/L EDTA, 0.27% (w/v) bovine serum albumin in 66.7 millimol/L HEPES pH 7.5).
The resulting mixture was incubated 1 h at 22° C. to allow the formation of complex between the phosphorylated biotinylated peptide and the detection reagents. Subsequently the amount of phosphorylated substrate was evaluated by measurement of the resonance energy transfer from the Eu-chelate to the streptavidine-XL. Therefore, the fluorescence emissions at 620 nm and 665 nm after excitation at 350 nm was measured in a TR-FRET reader, e.g. a Pherastar FS (BMG Labtechnologies, Offenburg, Germany) or a Viewlux (Perkin-Elmer). The ratio of the emissions at 665 nm and at […] was taken as the measure for the amount of phosphorylated substrate. The data were normalised (enzyme reaction without inhibitor=0% inhibition, all other assay components but no enzyme=100% inhibition).

In test [1] the test system is CAL-120, human breast adenocarcinoma cells. As to the kind of experiment: Proliferation assay CAL-120 (crystal violet, 4 days). The settings on record: Homo sapiens, CAL-120, 96 h, CAL-120 cells, median, read-out: Prolif-CAL-120, IC50-[mol/l] (median). The format is cell-based. Here is the method: Human tumour cells were originally obtained from the American Type Culture Collection (ATCC), or from the Deutsche Sammlung von Mikroorganismen und Zellkulturen (DSMZ, German Collection of Microorganisms and Cell Cultures). Cultivated tumour cells (CAL-120, human breast adenocarcinoma cells, DSMZ ACC-459; MDA-MB-231, human breast cancer cells, ATCC HTB-26) were plated at a density of 4,000 cells/well in a 96-well multititer plate in 200 microL of their respective growth medium supplemented 10% fetal calf serum. After 24 hours, the cells of one plate (zero-point plate) were stained with crystal violet (see below), while the medium of the other plates was supplemented with the test substances in various concentrations (0 micromol/L, as well as in the range of 0.01-10 micromol/L; the final concentration of the solvent dimethyl sulfoxide was adjusted to 0.1%) using a Tecan HP D300 Digital Dispenser. The cells were incubated for 4 days in the presence of test substances. Cell proliferation was determined by staining the cells with crystal violet: the cells were fixed by adding 20 microL/measuring point of an 11% glutaric aldehyde solution for 15 minutes at room temperature. After three washing cycles of the fixed cells with water, the plates were dried at room temperature. The cells were stained by adding 100 microL/measuring point of a 0.1% crystal violet solution (pH 3.0). After three washing cycles of the stained cells with water, the plates were dried at room temperature. The dye was dissolved by adding 100 microL/measuring point of a 10% acetic acid solution. The extinction was determined by photometry at a wavelength of 595 nm. The change of cell number, in percent, was calculated by normalization of the measured values to the extinction values of the zero-point plate (=0%) and the extinction of the untreated (0 μM) cells (=100%). The IC50 values (inhibitory concentration at 50% of maximal effect) were determined by means of a 4 parameter fit.

Molecules are shown by their SMILES. Some results are limits rather than exact numbers.

Sequence of CDK12/CycK (Q9NYV4 with tags, fused parts or gaps): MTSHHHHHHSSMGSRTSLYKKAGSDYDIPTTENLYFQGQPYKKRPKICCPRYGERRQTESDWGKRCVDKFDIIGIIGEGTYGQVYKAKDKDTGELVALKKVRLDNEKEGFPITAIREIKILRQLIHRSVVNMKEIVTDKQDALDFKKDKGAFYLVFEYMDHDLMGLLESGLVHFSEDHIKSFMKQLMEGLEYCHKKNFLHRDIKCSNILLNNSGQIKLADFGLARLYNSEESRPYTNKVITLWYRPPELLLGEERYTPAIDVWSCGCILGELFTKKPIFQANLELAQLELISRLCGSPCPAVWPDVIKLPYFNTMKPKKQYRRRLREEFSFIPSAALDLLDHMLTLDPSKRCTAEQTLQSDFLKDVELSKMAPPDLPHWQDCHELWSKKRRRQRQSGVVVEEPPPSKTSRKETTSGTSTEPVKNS
Sequence of CDK12/CycK (O75909 1-300 partner limits assumed): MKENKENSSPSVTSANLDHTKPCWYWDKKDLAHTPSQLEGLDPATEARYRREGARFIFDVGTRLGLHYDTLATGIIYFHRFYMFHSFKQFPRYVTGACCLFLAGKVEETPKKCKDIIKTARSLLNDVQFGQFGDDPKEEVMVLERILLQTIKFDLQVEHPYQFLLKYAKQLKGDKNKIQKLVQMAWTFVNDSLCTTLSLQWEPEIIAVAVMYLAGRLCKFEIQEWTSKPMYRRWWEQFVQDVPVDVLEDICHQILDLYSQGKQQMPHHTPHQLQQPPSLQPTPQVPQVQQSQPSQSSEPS

Take `CC(=O)NCCCc1cccc2[nH]c(CNc3nc(N4CCOCC4)nc4c(Br)cnn34)nc12.O=CO` [Example 115, formic acid-N-{3-[2-({[8-bromo-2-(morpholin-4-yl)pyrazolo[1,5-a][1,3,5]triazin-4-yl]amino}methyl)-1H-benzimidazol-4-yl]propyl}acetamide (1/1)]: at CDK12/CycK, the IC50 is 11.6 µM.
As to `Fc1ccccc1-c1cnn2c(NCc3nc4ccccc4[nH]3)nc(N3CCOCC3)nc12` [Example 95, N-[(1H-benzimidazol-2-yl)methyl]-8-(2-fluorophenyl)-2-(morpholin-4-yl)pyrazolo[1,5-a][1,3,5]triazin-4-amine], the values for the IC50 (in test [1]; on CDK12/CycK) were 230 nM and above 20 µM, respectively.
As for `c1ccc(-c2cnn3c(NCc4nc5ccccc5[nH]4)nc(N4CCOCC4)nc23)cc1` [Example 104, N-[(1H-benzimidazol-2-yl)methyl]-2-(morpholin-4-yl)-8-phenylpyrazolo[1,5-a][1,3,5]triazin-4-amine], the IC50 in test [1] is 127 nM; at CDK12/CycK it was above 20 µM.
`Brc1cnn2c(NCc3nc4ccccc4[nH]3)nc(N3CCC3)nc12` [Example 143, 2-(azetidin-1-yl)-N-[(1H-benzimidazol-2-yl)methyl]-8-bromopyrazolo[1,5-a][1,3,5]triazin-4-amine]: the IC50 in test [1] is 306 nM; at CDK12/CycK, above 20 µM.
In the case of `NCCc1ccc2[nH]c(CNc3nc(N4CCOCC4)nc4c(Br)cnn34)nc2c1.O=CO` [Example 113, formic acid-N-{[5-(2-aminoethyl)-1H-benzimidazol-2-yl]methyl}-8-bromo-2-(morpholin-4-yl)pyrazolo[1,5-a][1,3,5]triazin-4-amine (1/1)], on CDK12/CycK, the IC50 amounted to 1.71 µM.
Consider `Clc1cccc(-c2cnn3c(NCc4nc5ccccc5[nH]4)nc(N4CCOCC4)nc23)c1` [Example 107, N-[(1H-benzimidazol-2-yl)methyl]-8-(3-chlorophenyl)-2-(morpholin-4-yl)pyrazolo[1,5-a][1,3,5]triazin-4-amine], for which the IC50 is 188 nM in test [1] and above 20 µM on CDK12/CycK.
Consider `CC1(C)CN(c2nc(NCc3nnc(-c4ccccc4)[nH]3)n3ncc(C4CC4)c3n2)CCO1` [Example 94, 8-cyclopropyl-2-(2,2-dimethylmorpholin-4-yl)-N-[(5-phenyl-4H-1,2,4-triazol-3-yl)methyl]pyrazolo[1,5-a][1,3,5]triazin-4-amine], for which the IC50 worked out at 177 nM in test [1] and 8.79 µM on CDK12/CycK.
As to `NCCc1cccc2[nH]c(CNc3nc(N4CCOCC4)nc4c(Br)cnn34)nc12` [Example 112, N-{[7-(2-aminoethyl)-1H-benzimidazol-2-yl]methyl}-8-bromo-2-(morpholin-4-yl)pyrazolo[1,5-a][1,3,5]triazin-4-amine], on CDK12/CycK, the IC50 amounted to 6.68 µM.
Regarding `C[C@@H]1CCCCN1c1nc(NCc2nc3ccccc3[nH]2)n2ncc(Br)c2n1` [Example 140, N-[(1H-benzimidazol-2-yl)methyl]-8-bromo-2-[(2R)-2-methylpiperidin-1-yl]pyrazolo[1,5-a][1,3,5]triazin-4-amine], the values for the IC50 (in test [1]; on CDK12/CycK) were 255 nM and 8.15 µM, respectively.
As to `CC(C)c1cnn2c(NCc3nc4ccccc4[nH]3)nc(N3CC4(COC4)C3)nc12` [Example 9, N-[(1H-benzimidazol-2-yl)methyl]-2-(2-oxa-6-azaspiro[3.3]heptan-6-yl)-8-(propan-2-yl)pyrazolo[1,5-a][1,3,5]triazin-4-amine], on CDK12/CycK, the IC50 is above 20 µM.
Turning to `NCCCc1cccc2[nH]c(CNc3nc(N4CCOCC4)nc4c(Br)cnn34)nc12.O=CO` [Example 114, formic acid-N-{[4-(3-aminopropyl)-1H-benzimidazol-2-yl]methyl}-8-bromo-2-(morpholin-4-yl)pyrazolo[1,5-a][1,3,5]triazin-4-amine (1/1)], the IC50 on CDK12/CycK was 8.13 µM.
Consider `Brc1cnn2c(NCc3nc4ccccc4[nH]3)nc(N3CCN(C4CC4)CC3)nc12` [Example 138, N-[(1H-benzimidazol-2-yl)methyl]-8-bromo-2-(4-cyclopropylpiperazin-1-yl)pyrazolo[1,5-a][1,3,5]triazin-4-amine], for which the results for the IC50 (in test [1]; on CDK12/CycK) were 451 nM and above 20 µM, respectively.
`CC(C)c1cnn2c(NCc3nc4ccccc4[nH]3)nc(N3CCOC[C@H]3C)nc12` [Example 7, N-[(1H-benzimidazol-2-yl)methyl]-2-[(3R)-3-methylmorpholin-4-yl]-8-(propan-2-yl)pyrazolo[1,5-a][1,3,5]triazin-4-amine]: at CDK12/CycK, the IC50 came to 10.2 µM.
Turning to `CN1CCN(c2nc(NCc3nnc(-c4ccccc4)[nH]3)n3ncc(Br)c3n2)CC1=O` [Example 121, 4-(8-bromo-4-{[(5-phenyl-4H-1,2,4-triazol-3-yl)methyl]amino}pyrazolo[1,5-a][1,3,5]triazin-2-yl)-1-methylpiperazin-2-one], the IC50 is 404 nM in test [1] and 7.47 µM on CDK12/CycK.
Take `FC(F)(F)CN1CCN(c2nc(NCc3nc4ccccc4[nH]3)n3ncc(Br)c3n2)CC1` [Example 139, N-[(1H-benzimidazol-2-yl)methyl]-8-bromo-2-[4-(2,2,2-trifluoroethyl)piperazin-1-yl]pyrazolo[1,5-a][1,3,5]triazin-4-amine]: the IC50 in test [1] was 446 nM; at CDK12/CycK, 15.3 µM.
On to `OCC1CCN1c1nc(NCc2nc3ccccc3[nH]2)n2ncc(Br)c2n1` (stereo not drawn) [Example 147, [1-[4-(1H-benzimidazol-2-ylmethylamino)-8-bromo-pyrazolo[1,5-a][1,3,5]triazin-2-yl]azetidin-2-yl]methanol], for which the values for the IC50 (in test [1]; at CDK12/CycK) were 310 nM and 4.97 µM, respectively.
With `[O-][S+]1CCN(c2nc(NCc3nc4ccccc4[nH]3)n3ncc(Br)c3n2)CC1` [Example 144, 4-(4-{[(1H-benzimidazol-2-yl)methyl]amino}-8-bromopyrazolo[1,5-a][1,3,5]triazin-2-yl)-1lambda^4-thiomorpholin-1-one], the IC50 is 110 nM in test [1] and 3.72 µM at CDK12/CycK.
Regarding `Brc1cnn2c(NCc3nc4ccccc4[nH]3)nc(N3CCN4CCC[C@@H]4C3)nc12` [Example 149, N-[(1H-benzimidazol-2-yl)methyl]-8-bromo-2-[(8aR)-hexahydropyrrolo[1,2-a]pyrazin-2 (1 H)-yl]pyrazolo[1,5-a][1,3,5]triazin-4-amine], the IC50 worked out at 164 nM in test [1] and 6.22 µM on CDK12/CycK.
